Experiments:
[1] = system: broad spectrum of cancer cell lines, including cisplatin-resistant ones; set-up: method as in PMID 23362983; conditions: cited from earlier work
[2] = set-up: method as in PMID 23362983; conditions: cited from earlier work
[3] = Tissue distribution in rats after single intravenous administration; assay type: in vivo, SD rats; conditions: single i.v. 2 mg/kg
Procedure: (§1) The analyte of GC20 in rat biological samples was extracted using one-step protein precipitation. 50 μL of rat plasma or rat tissue homogenate was treated with 250 μL methanol containing IS (375 ng/mL). Vortex for 5 min to completely precipitate the proteins contained in the biological matrix. The mixture was then centrifuged at 18,000 rpm for 10 min (Sorvall Biofuge Stratos, Waltham, MA, USA), and 5 μL supernatant was injected for analysis.
Eighteen SD rats (nine male and nine female, 6–8 weeks old) were purchased from Shanghai SLAC Laboratory Animal Co., Ltd. (Shanghai, China). After one week of adaptation, all rats were randomly divided into three groups, each group of six (three male and three female in each group). All rats were administrated GC20 solution at a single dose of 2 mg/kg vial the tail vein. The administered dose for tissue distribution was selected from the intermediate dose of single administration in the pharmacokinetic study. Blood samples were first collected via the ophthalmic veins and then rats were sacrificed to harvest tissues (i.e., heart, liver, spleen, lungs, kidneys, stomach, small intestine, brain, skin, muscle, fat, testes/ovaries, pancreas, thymus, and leg bones) promptly at 10 min, 2 h, or 12 h after dosing. To eliminate blood and other content, the tissues were thoroughly rinsed in water. Each tissue sample was homogenized into ten-fold volumes of water and then stored at −80 °C until further analysis.

[4] = Pharmacokinetic study in SD rats after intravenous administration (plasma, LC-MS/MS); assay type: in vivo, Spague-Dawley rats; conditions: for AUC0-∞ / AUC0–t / C5min: rat plasma; for C5min: n = 6; for CL/F / V/F / t1/2: rat
Procedure: as §1
Twenty-four Spague-Dawley rats (twelve male and twelve female, 6–8 weeks old) were purchased from Shanghai SLAC Laboratory Animal Co., Ltd. (Shanghai, China). Animals were housed in an environment which controlled room temperature at 22 ± 2 °C and humidity at 55 ± 5%. Animals received 12/12 h light/dark cycle. Prior to the experiment, animals were fed a standard diet for one week to adapt to the laboratory conditions. Animal welfare and experimental procedures were strictly in accordance with the Guidelines of Animal Experiments of China Pharmaceutical University (Nanjing, China) and approved by the Animal Ethics Committee.
All rats were randomly divided into four groups, each group of six (three male and three female in each group). Three groups consisted of rats that received a single intravenous administration of GC20 at a single dose of 1, 2 or 4 mg/kg, while the fourth group consisted of rats that received a dose of 2 mg/kg on seven consecutive days. The doses for single administration was determined according to the pharmacodynamic doses and toxic doses of GC20 in animals reported in the literature. The dose for multiple administrations was selected from the intermediate dose of a single administration. Dose solutions were prepared with 10% glucose solution. Before administration, rats fasted for 12 h. Blood samples (150 μL) were collected into tubes containing heparin (as an anticoagulant) via the ophthalmic veins at 0 min (i.e., before dosing), 5 min, 10 min, 15 min, 30 min, 1 h, 2 h, 4 h, 6 h, 8 h, 12 h, 24 h, 36 h, 48 h and 72 h. Then, the tubes were centrifuged at 8000 rpm for 5 min to separate the plasma. Plasma samples were then stored at −80 °C until further analysis. The pharmacokinetic parameters were calculated by Phoenix WinNonlin 6.0 (Pharsight, Mountain View, CA, USA).

[5] = Stability of GC20 in rat plasma under different storage conditions; assay type: in vitro ADME; conditions: for Measured Concentration: n = 6
Procedure: Extraction recovery was calculated by comparing the peak areas of extraction samples and post-extraction spiked samples. Matrix effect was evaluated by comparing the peak areas of post-extraction spiked samples and pure standard solutions. Post-extraction spiked samples were prepared as follows: Adding standard working solution into the mixed solution after protein precipitation of blank plasma to yield equivalent concentrations to corresponding extraction samples. Six replicates at three concentration levels were used for stability validation under a variety of storage and handling conditions. Samples were subjected to three freeze-thaw cycles, frozen at −80 °C for 7 days and 60 days, and storing at room temperature for 12 h. Post-preparative stability was evaluated by reanalyzing post-extraction samples kept in the autosampler at 4 °C for 48 h.

[6] = multiple dose i.v. 2 mg/kg on seven consecutive days
[7] = post-extraction samples, autosampler 48 h at 4 °C, spiked 50 ng/mL
[8] = post-extraction samples, autosampler 48 h at 4 °C, spiked 1000 ng/mL
[9] = rat plasma, frozen (−80 °C) for 7 days, spiked 50 ng/mL
[10] = rat plasma, frozen (−80 °C) for 7 days, spiked 1000 ng/mL
[11] = rat plasma, frozen (−80 °C) for 60 days, spiked 2 ng/mL
[12] = rat plasma, frozen (−80 °C) for 60 days, spiked 50 ng/mL
[13] = rat plasma, frozen (−80 °C) for 60 days, spiked 1000 ng/mL
[14] = rat plasma, room temperature for 12 h, spiked 2 ng/mL
[15] = rat plasma, room temperature for 12 h, spiked 50 ng/mL
[16] = rat plasma, room temperature for 12 h, spiked 1000 ng/mL
[17] = rat plasma, three freeze-thaw cycles, spiked 2 ng/mL
[18] = rat plasma, three freeze-thaw cycles, spiked 50 ng/mL
[19] = rat plasma, three freeze-thaw cycles, spiked 1000 ng/mL

CC(C)(C)[P+]1(C)c2nc3ccccc3nc2[P+](C)(C(C)(C)C)[Au-3]12[P+](C)(C(C)(C)C)c1nc3ccccc3nc1[P+]2(C)C(C)(C)C (centres unmarked) [GC20, Bis(2,3-bis(tert-butylmethylphosphino)quinoxaline)aurate(I)]
inhibitory effect on proliferation ([1]; broad spectrum of cancer cell lines, including cisplatin-resistant ones): strong inhibitory effect
selectivity between cancer cells and normal cells [1]: remarkable selectivity
toxicity in animal models as compared to cisplatin [2]: lower toxicity
tissue with the lowest concentration ([3]; 10 min, 2 h, 12 h): lowest in the brain
tissues with the highest concentrations ([3]; 10 min, 2 h, 12 h): lung, spleen, liver, and pancreas
time of highest tissue concentration ([3]; spleen, liver, kidney and heart): 2 h
AUC0-∞ [4, 6]: 6936.7 ± 1005.4 ng·h/mL
AUC0–t ([4]; multiple dose i.v. 2 mg/kg on seven consecutive days, 0–24 h): 4551.2 ± 440.3 ^# h*ng/mL
C5min [4, 6]: 3645.8 ± 388.3 ng/mL
AUC0-∞ ([4]; single dose i.v. 1 mg/kg): 1457.0 ± 354.5 ng·h/mL
AUC0–t ([4]; single dose i.v. 1 mg/kg, 0–72 h): 1419.9 ± 345.5 ng·h/mL
C5min ([4]; single dose i.v. 1 mg/kg): 1564.6 ± 387.5 ng/mL
AUC0-∞ ([4]; single dose i.v. 2 mg/kg): 2540.5 ± 308.6 ng·h/mL
AUC0–t ([4]; single dose i.v. 2 mg/kg, 0–72 h): 2466.4 ± 298.3 ng·h/mL
C5min ([4]; single dose i.v. 2 mg/kg): 2657.6 ± 632.7 ng/mL
AUC0-∞ ([4]; single dose i.v. 4 mg/kg): 7562.2 ± 2709.6 ng·h/mL
AUC0–t ([4]; single dose i.v. 4 mg/kg, 0–72 h): 7237.1 ± 2695.0 ng·h/mL
C5min ([4]; single dose i.v. 4 mg/kg): 5902.6 ± 1955.2 ng/mL
CL/F [4, 6]: 4.83 ± 0.67 mL/min/kg
V/F [4, 6]: 10.6 ± 1.7 L/kg
t1/2 [4, 6]: 25.1 ± 3.0 h
CL/F ([4]; single dose i.v. 1 mg/kg): 12 ± 3.17 mL/min/kg
V/F ([4]; single dose i.v. 1 mg/kg): 11.89 ± 3.35 L/kg
t1/2 ([4]; single dose i.v. 1 mg/kg): 11.33 ± 0.57 h
CL/F ([4]; single dose i.v. 2 mg/kg): 13.3 ± 1.67 mL/min/kg
V/F ([4]; single dose i.v. 2 mg/kg): 13.00 ± 2.39 L/kg
t1/2 ([4]; single dose i.v. 2 mg/kg): 11.24 ± 0.75 h
CL/F ([4]; single dose i.v. 4 mg/kg): 10 ± 4 mL/min/kg
V/F ([4]; single dose i.v. 4 mg/kg): 11.11 ± 5.28 L/kg
t1/2 ([4]; single dose i.v. 4 mg/kg): 12.58 ± 1.80 h
accumulation after multiple doses ([4]; rats, consecutive administration for 7 days): accumulated in rats after multiple doses
elimination half-life after multiple doses relative to single administration ([4]; rats, i.v. 2 mg/kg for 7 days vs single administration): twice that after a single administration
elimination half-life ([4]; rats, single administration of low, medium and high doses (i.v.)): 11 to 13 h
Measured Concentration ([5]; post-extraction samples, autosampler 48 h at 4 °C, spiked 2 ng/mL): 1.8 ± 0.0 ng/mL
Accuracy (RE%) [5, 7]: −9.5%
Measured Concentration [5, 7]: 45.2 ± 0.1 ng/mL
Accuracy (RE%) [5, 8]: −9.9%
Measured Concentration [5, 8]: 901.3 ± 17.1 ng/mL
Accuracy (RE%) ([5]; rat plasma, frozen (−80 °C) for 7 days, spiked 2 ng/mL): 8.2%
Accuracy (RE%) [5, 9]: 4.1%
Measured Concentration [5, 9]: 52.0 ± 0.9 ng/mL
Accuracy (RE%) [5, 10]: 3.1%
Measured Concentration [5, 10]: 1030.5 ± 15.9 ng/mL
Accuracy (RE%) [5, 11]: −8.9%
Measured Concentration [5, 11]: 1.8 ± 0.1 ng/mL
Accuracy (RE%) [5, 12]: −5.4%
Measured Concentration [5, 12]: 47.3 ± 0.6 ng/mL
Accuracy (RE%) [5, 13]: −3.0%
Measured Concentration [5, 13]: 970.1 ± 27.3 ng/mL
Accuracy (RE%) [5, 14]: −9.2%
Measured Concentration [5, 14]: 1.8 ± 0.1 ng/mL
Accuracy (RE%) [5, 15]: 2.0%
Measured Concentration [5, 15]: 51.0 ± 0.4 ng/mL
Accuracy (RE%) [5, 16]: 2.1%
Measured Concentration [5, 16]: 1020.7 ± 23.6 ng/mL
Accuracy (RE%) [5, 17]: 8.7%
Measured Concentration [5, 17]: 2.2 ± 0.1 ng/mL
Accuracy (RE%) [5, 18]: 2.3%
Measured Concentration [5, 18]: 51.1 ± 0.3 ng/mL
Accuracy (RE%) [5, 19]: 0.2%
Measured Concentration [5, 19]: 1001.8 ± 19.0 ng/mL
stability under typical sample storage and processing conditions ([5]; rat plasma, room temperature 12 h, −80 °C 7 and 60 days, three freeze-thaw cycles, autosampler 4 °C 48 h): stable

Source: paper PMC6600414, “Pharmacokinetics and Tissue Distribution of a Novel Bis-Chelated Gold(I) Diphosphine Compound, Bis(2,3-bis(tert-butylmethylphosphino)Quinoxaline)Aurate(I), in Rats” (Molecules, 2019)
